Article PMC3733247 (Journal of medicinal chemistry, 2013)

Target: HIV-1 RT (Human immunodeficiency virus type 1 group M subtype B, UniProt P03366)
Experiment: Steady-state competition assay, IC50 determination
Type: biochemical
Settings: dTTP incorporation, ratio of IC50 values

## Cc1cc(C#CCOCCOCCOCCOCCOCC#Cc2cn([C@H]3C=C[C@@H](COP(=O)(O)OP(=O)(O)OP(=O)(O)O)O3)c(=O)[nH]c2=O)cc(C)c1Oc1ccnc(Nc2ccc(C#N)cc2)n1 [d4TTP-4PEG-TMC, d4U-Propynyl-4-PEG-propynyl-TMC-triphosphate]
  fold improvement of polymerization inhibition over propargyl-4PEG-TMC: 40 fold
  fold improvement of polymerization inhibition relative to the TMC-derivative: approximately 4.3 fold
Listed as triphosphate of d4T-4PEG-TMC
  fold improvement of polymerization inhibition relative to the TMC-derivative: 4.3 fold

## C#CCOCCOCCOCCOCCOCC#Cc1cc(C)c(Oc2ccnc(Nc3ccc(C#N)cc3)n2)c(C)c1 [propargyl-4PEG-TMC, 4-[4-(4-{3-[2-(2-{2-[2-(Prop-2-ynyloxy)ethoxy]ethoxy}ethoxy)-ethoxy]prop-1-ynyl}-2,6-dimethylphenoxy)pyrimidin-2-ylamino]-benzonitrile]
  fold decrease in potency relative to the TMC-derivative: 10 fold
